# In patent US20040198800A1, “Lipoxygenase inhibitors as hypolipidemic and anti-hypertensive agents” (priority 2002, published 2004):
# Experiments:
# [1] = test system: high-fructose diet fed rats; assay: Example 1: in vivo efficacy of 5-LO inhibitors in diet-induced model of hypertriglyceridemia and hypertension (serum TG, FFA, insulin, glucose, body weight); set-up: species or system Sprague-Dawley rats; settings: oral gavage twice a day for 5 days; for effect on serum triglycerides: NDGA 250 mg/kg (p=0.0004), BW 755c 100 mg/kg (p=0.0002), day 0 vs day 5, FIG. 1; for effect on serum insulin levels: NDGA 250 mg/kg (p=0.003); for effect on serum insulin levels / effect on increase in serum free fatty acids during treatment / effect on serum glucose: BW 755c 100 mg/kg; for effect on increase in serum free fatty acids during treatment / effect on serum glucose: NDGA 250 mg/kg
# Source text: Male Sprague-Dawley rats weighting 175-200 g were used in these studies. […]. Rats were first maintained on a chow diet for ˜1 wk and then were divided into four groups (7 or 8 animals in each group). Three groups were switched to a high-fructose diet (Harlan Teklad, Madison, Wis.) that provided 60% of total calories as fructose. The fourth group was maintained on normal chow to serve as an overall control group. After 14 days on the high-fructose diet, the degree of hypertriglyceridemia was evaluated by determining the total plasma TG levels. On day 0 of treatment, tail vein blood was collected for baseline measurements of serum TG, glucose, insulin, and FFA. […] All animals were dosed two times a day for 5 days (days 1-5), delivered by oral gavage. On day 5 of treatment (approximately 3 hours after the oral dose) vein blood was collected for measurements of serum TG, glucose, insulin, and FFA. During the treatment period, rats were maintained on their prescribed diets. Body weights were measured on day 0 and day 5.
# Serum samples were used to measure TG and glucose concentrations by enzymatic […] methods using Sigma Diagnostic kits (St. Louis, Mo.). Serum insulin concentrations were by RIA using a Linco Rat Insulin RIA kit (St. Charles, Mo.). FFA concentrations were measured using the nonesterified fatty acid (NEFA) C kit by the ACS-ACOD method following the instructions of the manufacturer.
# Data was statistically analyzed using paired t-tests to determine significance.
# [2] = test system: high fructose fed (HFF) rats; assay: Example 2: effect of lipoxygenase inhibitors on serum metabolic components of HFF rats; assay type: in vivo, Sprague-Dawley rats; settings: for Cholesterol, Day 15 / Cholesterol, Day 19: serum total cholesterol; for Cholesterol, Day 19 / Glucose, Day 19 / FFA, Day 19 / Insulin, Day 19 / TG, Day 19: Day 19 after 4 days BID oral gavage (NDGA 250 mg/kg, BW 755c 100 mg/kg); for Glucose, Day 19: 3 hours after last dose
# Procedure: Male rats were initially divided into HFF or chow (control) groups and maintained for 14 days on the prescribed diet. […] On days 15-19 all groups were treated by oral gavage twice daily with either drug or vehicle. On days 15 and 19 serum was collected for analysis. On day 20, the groups were subdivided to receive either LPS or vehicle (saline). Post-LPS treatment, the animals were sacrificed and their livers were isolated for analysis.
# Male Sprague-Dawley rats weighing approximately 180-200 g first maintained on a rat chow diet and then were divided into four groups, three of which were switched to a high-fructose diet (Harlan Teklad, Madison, Wis.) that provided 60% of total calories as fructose (Day 1). On day 15 of treatment, the rats were fasted for 4 hours and tail vein blood was collected for baseline measurements of serum TG, glucose, insulin and free fatty acids (FFA) as previously described (Gowri et al., Am. J. Hypertension, 12: 744-746 (1999)). […] The chow group (diet control) was treated with vehicle. During the treatment regimen the animals were maintained on high-fructose diet. […] On day 20, four animals in each group were injected (iv) with 0.5 mg/kg BW Salmonella enterifdis endotoxin (lipopolysaccharide, LPS) or normal saline under light anaesthesia. After 2 hours, serum was collected for corticosterone measurement, as described previously (Kraemer et al., Endocrinology, 143: 801-806 (2002)), and then the animals were sacrificed and tissues removed, snap-frozen in liquid nitrogen and stored at −80° C. until analyzed. The local committee on animal care approved all animal protocols.
# Statistical analysis were performed by either paired or unpaired t-test using GraphPad Prism version 3.00 for Windows, GraphPad Software, San Diego Calif. USA. A difference between groups was considered significant if P was less than 0.05. Normalized Western Blot data were obtained as a ratio of the units measured for phosphorylated protein divided by the units measured for total protein. Statistical analyses were performed on the normalized data.
# [3] = background statement; cited from earlier work
# [4] = test system: diabetic rat model; settings: Babu et al. 1997; cited from earlier work
# [5] = test system: in vivo animal models; settings: Maya et al. 2000; Scribner et al. 2000; cited from earlier work
# [6] = Day 15 = baseline before drug treatment, mean ± S.E., n = 7-8
# [7] = serum, Day 15 = baseline before drug treatment, mean ± S.E., n = 7-8
SMILES,effect on serum triglycerides [1],effect on serum insulin levels [1],effect on increase in serum free fatty acids during treatment [1],effect on serum glucose [1],effect on serum total cholesterol ([2]; four days BID oral treatment),"Cholesterol, Day 15 [2, 6]","Cholesterol, Day 19 ([2]; mean ± S.E., n = 7-8)","Glucose, Day 15 ([2]; serum, Day 15 = baseline before drug treatment, 4 h fasted, mean ± S.E., n = 7-8)","FFA, Day 15 [2, 7]","Insulin, Day 15 [2, 7]","TG, Day 15 [2, 7]","Glucose, Day 19 ([2]; serum, mean ± S.E., n = 7-8)","FFA, Day 19 ([2]; serum, mean ± S.E., n = 7-8)","Insulin, Day 19 ([2]; serum, mean ± S.E., n = 7-8)","TG, Day 19 ([2]; serum, mean ± S.E., n = 7-8)",bioavailability [3],properties in in vivo diabetic rat model [4],effect on fasting blood glucose ([2]; four days BID oral treatment),effect on fasting serum insulin ([2]; four days BID oral treatment),properties in in vivo animal models [5]
"NC1=NN(c2cccc(C(F)(F)F)c2)CC1 [BW 755c, 4,5-dihydro-1-(3-(trifluoromethyl)phenyl)-1H-pyrazol-3-amine]",significantly reduced,no effect,ameliorated,no effect,Neither of these effects was observed,107.6 ± 3 mg/dL,104.5 ± 2 mg/dL,119 ± 7 mg/dL,554 ± 71 μEq/L,1.6 ± 0.3 ng/mL,296 ± 31 mg/dL,114 ± 7 mg/dL,504 ± 42 μEq/L,1.7 ± 0.3 ng/mL,112 ± 20(^4) mg/dL,,,,,
COc1cc(/C=C/C(=O)CC(=O)/C=C/c2ccc(O)c(OC)c2)ccc1O [Curcumin],,,,,,,,,,,,,,,,poorly bioavailable,hypolidemic properties,,,
"C[C@H](Cc1ccc(O)c(O)c1)[C@@H](C)Cc1ccc(O)c(O)c1 [NDGA, nordihydroguaiaretic acid]",significantly reduced,significantly lowered,ameliorated,without increasing serum glucose,significantly reduced,118.6 ± 3 mg/dL,98.3 ± 4(^7) mg/dL,,599 ± 51 μEq/L,2.3 ± 0.3 ng/mL,384 ± 48 mg/dL,122 ± 8 mg/dL,611 ± 101 μEq/L,0.9 ± 0.1(′) ng/mL,97 ± 6 mg·s/dL,poorly bioavailable,,without significantly altering,significantly decreased,hypolipidemic and antihypertensive properties
